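Assay format: 96-well plates, 48-hour exposure. At the GI50, growth is halved.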 Calls of active or inactive are those of the source. Cut-off read from the data, not from the text of the source: active = GI50 up to about 1.1 µM and inactive = higher.

Here are results for eleven compounds from ChEMBL document CHEMBL1201862, “PubChem BioAssay data set” (2004).

Test systems include Hs-578T; HL-60; HCT-116; OVCAR-3; IGROV-1; OVCAR-5; SR; Malme-3M; HOP-62; K562; SK-MEL-28; SN12C; NCI-H23; NCI-H460; PC-3; CCRF-CEM; BT-549; 786-0; NCI/ADR-RES; RXF 393.
Holding throughout (assay): NCI tumour cell line growth inhibition, 48 h

For the compound `CC(=O)N(C)CCc1c[nH]c2ccccc12`, the GI50 in the assay on Hs-578T, in the assay with HL-60, in the assay with HCT-116, in the assay on OVCAR-3, in the assay on IGROV-1 and in the assay with OVCAR-5 was > 100 µM (inactive) each time. The GI50 in the assay on SR, in the assay with Malme-3M, in the assay on HOP-62, with K562, in the assay with SK-MEL-28 and with SN12C was > 100 µM (inactive) each time. Besides, the GI50 in the assay with NCI-H23, in the assay with NCI-H460, in the assay with PC-3, in the assay on CCRF-CEM, with BT-549 and in the assay on 786-0 was > 100 µM (inactive) throughout. Besides, in the assay on NCI/ADR-RES, the GI50 is > 100 µM (inactive).

With `O=C1C(NCCF)=C(Cl)C(=O)c2ncccc21`, the GI50 was 1.77 µM (inactive) with Hs-578T; 0.413 µM (active) in the assay on HL-60; 1.18 µM (inactive) in the assay on HCT-116; 2.48 µM (inactive) in the assay on OVCAR-3; 1.39 µM (inactive) in the assay with IGROV-1; 2.04 µM (inactive) in the assay with OVCAR-5. Besides, the GI50 in the assay with SR was 2.36 µM (inactive); in the assay with Malme-3M, 0.402 µM (active); with HOP-62, 1.47 µM (inactive); with K562, 0.206 µM (active); in the assay on SK-MEL-28, 0.701 µM (active); in the assay on SN12C, 1.02 µM (active). The GI50 in the assay on NCI-H23 is 0.653 µM (active); with NCI-H460, 0.429 µM (active); in the assay with RXF 393 it was 0.736 µM (active); in the assay on PC-3, 1.29 µM (inactive); in the assay with CCRF-CEM, 0.204 µM (active); in the assay with BT-549, 1.49 µM (inactive). For the same compound, the GI50 in the assay on 786-0 is 1.19 µM (inactive).

In the case of `COc1ccc(/C=C2\OC(=O)C(Cl)=C2c2ccc(OC)cc2)cc1`, the GI50 in the assay with Hs-578T, with HL-60, in the assay on OVCAR-3, in the assay on IGROV-1, in the assay on SR and in the assay on Malme-3M was > 100 µM (inactive) each time. The GI50 in the assay with HOP-62 was 28 µM (inactive); with K562, > 100 µM (inactive); in the assay on SK-MEL-28, > 100 µM (inactive); with SN12C it was > 100 µM (inactive); with NCI-H460, > 100 µM (inactive); with PC-3, 63 µM (inactive). The GI50 is > 100 µM (inactive) with CCRF-CEM, 99.5 µM (inactive) in the assay on BT-549 and 45.6 µM (inactive) with 786-0.

With `Cc1nn(C(=O)Cc2ccccc2)c2c1C(c1ccccc1[N+](=O)[O-])SC(=N)N2` (stereo not given), the GI50 with Hs-578T, in the assay on HL-60, with HCT-116, with IGROV-1, in the assay with SR and with Malme-3M was > 100 µM (inactive) in each case. In addition, the GI50 with HOP-62, in the assay on K562, with SK-MEL-28, with SN12C, in the assay with NCI-H23 and in the assay with NCI-H460 was > 100 µM (inactive) in each case. Besides, the GI50 with PC-3, with CCRF-CEM, in the assay on BT-549 and in the assay with 786-0 was > 100 µM (inactive) throughout.

As to `O=C(/C=C1\C[C@H]2C=Nc3ccccc3C(=O)N2C1)NCCCCNC(=O)/C=C1\C[C@H]2C=Nc3ccccc3C(=O)N2C1`, the GI50 in the assay with Hs-578T was 29.4 µM (inactive); in the assay on HL-60, 3.3 µM (inactive); in the assay with HCT-116, 12.3 µM (inactive); in the assay on OVCAR-3 it was 7.82 µM (inactive); with IGROV-1 it was 14.5 µM (inactive); in the assay with OVCAR-5 it was 19.2 µM (inactive). Moreover, the GI50 with Malme-3M was 6.81 µM (inactive); with HOP-62, 17.2 µM (inactive); in the assay on K562 it was 3.11 µM (inactive); with SK-MEL-28 it was 15.8 µM (inactive); in the assay with SN12C, 5.05 µM (inactive); in the assay with NCI-H23, 11.3 µM (inactive). In addition, the GI50 with NCI-H460 was 17.7 µM (inactive); in the assay on RXF 393 it was 6.15 µM (inactive); in the assay on PC-3, 14.4 µM (inactive); with CCRF-CEM, 1.39 µM (inactive); in the assay with BT-549, 12.9 µM (inactive); with 786-0 it was 1.75 µM (inactive). In addition, the GI50 in the assay on NCI/ADR-RES was 22.3 µM (inactive).

Turning to `O=C(/C=C1\N=C(c2ccccc2)N(c2ccc3c(c2)Sc2cc(N4C(=O)/C(=C/C(=O)/C=C/c5ccccc5)N=C4c4ccccc4)ccc2N3)C1=O)/C=C/c1ccccc1`, the GI50 in the assay with Hs-578T was 33.2 µM (inactive); in the assay on HL-60 it was 40.6 µM (inactive); in the assay on HCT-116 it was > 100 µM (inactive); in the assay on OVCAR-3, 24.9 µM (inactive); with IGROV-1, 37.2 µM (inactive); in the assay on OVCAR-5, 22.4 µM (inactive). In addition, the GI50 in the assay with Malme-3M is 26.1 µM (inactive); with HOP-62, 48.8 µM (inactive); in the assay with K562, 30.8 µM (inactive); in the assay with SK-MEL-28, 65.2 µM (inactive); with SN12C, 36.8 µM (inactive); in the assay on NCI-H23, 50.4 µM (inactive). Moreover, the GI50 in the assay with NCI-H460 is 58.7 µM (inactive); in the assay on RXF 393 it was 27.3 µM (inactive); in the assay on PC-3, 19.5 µM (inactive); in the assay with CCRF-CEM it was 24.4 µM (inactive); in the assay on BT-549, 23.5 µM (inactive); in the assay on 786-0 it was 42.2 µM (inactive). In addition, the GI50 with NCI/ADR-RES was 41.6 µM (inactive).

For the compound `CCCCCCNC(=O)c1cc(NCc2cc(OC)ccc2OC)ccc1O`, the GI50 with Hs-578T is 28 µM (inactive); in the assay with HL-60, 14.4 µM (inactive); with HCT-116, 21.1 µM (inactive); with OVCAR-3, 0.865 µM (active); in the assay with IGROV-1, 21.3 µM (inactive); in the assay on OVCAR-5, 51.4 µM (inactive). Moreover, the GI50 in the assay on Malme-3M was 22.5 µM (inactive); with K562 it was 14.8 µM (inactive); with SK-MEL-28, 31.8 µM (inactive); in the assay with SN12C it was 20.6 µM (inactive); with NCI-H23 it was 24.7 µM (inactive); in the assay with NCI-H460, 24.7 µM (inactive). Moreover, the GI50 is 18.7 µM (inactive) with RXF 393; 20.2 µM (inactive) with PC-3; 20.5 µM (inactive) in the assay on CCRF-CEM; 15.5 µM (inactive) in the assay on BT-549; 27.9 µM (inactive) with 786-0; 16.9 µM (inactive) with NCI/ADR-RES.

In the case of `CN1CCc2c(sc3ncn(C)c(=N)c23)C1`, the GI50 in the assay with Hs-578T, in the assay with HL-60, in the assay on HCT-116, in the assay with OVCAR-3, in the assay with IGROV-1 and in the assay with OVCAR-5 was > 100 µM (inactive) throughout. Besides, the GI50 with Malme-3M, in the assay with HOP-62, in the assay with K562, with SK-MEL-28, with SN12C and in the assay on NCI-H23 was > 100 µM (inactive) each time. The GI50 in the assay on NCI-H460, in the assay on RXF 393, in the assay with PC-3, with CCRF-CEM, in the assay with BT-549 and in the assay with 786-0 was > 100 µM (inactive) in each case. The GI50 with NCI/ADR-RES was > 100 µM (inactive).

Take `Cc1ccc(CC(=O)Nc2ccc(NC(=O)/C=C/NC(=O)/C=C/c3ccc(-c4ccccc4)cc3)cc2C(=O)c2ccccc2)cc1`: the GI50 in the assay on Hs-578T is 1.73 µM (inactive); in the assay with HL-60, 16.9 µM (inactive); in the assay with HCT-116 it was 1.12 µM (active); with OVCAR-3, 1.88 µM (inactive); with IGROV-1 it was 0.975 µM (active); in the assay with OVCAR-5 it was 2.09 µM (inactive). Also, the GI50 in the assay with Malme-3M was 3.39 µM (inactive); with HOP-62, 2.11 µM (inactive); in the assay with K562 it was 11.1 µM (inactive); in the assay with SK-MEL-28 it was 3.03 µM (inactive); with SN12C, 1.92 µM (inactive); with NCI-H23, 1.85 µM (inactive). For the same compound, the GI50 in the assay on NCI-H460 was 1.87 µM (inactive); in the assay with RXF 393, 1.46 µM (inactive); in the assay on PC-3, 1.47 µM (inactive); with CCRF-CEM, 2.16 µM (inactive); with BT-549 it was 1.46 µM (inactive); with 786-0, 1.6 µM (inactive). Also, the GI50 with NCI/ADR-RES was 5.41 µM (inactive).

On to `O=S(=O)(NC(c1ccccc1)(c1cc2ccccc2[nH]1)c1cc2ccccc2n1S(=O)(=O)c1ccccc1)c1ccccc1` (stereo not given), for which the GI50 is > 100 µM (inactive) in the assay with Hs-578T; > 100 µM (inactive) in the assay on HL-60; > 100 µM (inactive) in the assay with HCT-116; 91.8 µM (inactive) with OVCAR-3; > 100 µM (inactive) in the assay with IGROV-1; > 100 µM (inactive) in the assay on OVCAR-5. Moreover, the GI50 in the assay with SR is > 100 µM (inactive); with Malme-3M, 59.2 µM (inactive); in the assay with HOP-62, > 100 µM (inactive); in the assay on K562, > 100 µM (inactive); in the assay with SK-MEL-28 it was > 100 µM (inactive); in the assay with NCI-H23, > 100 µM (inactive). Besides, the GI50 in the assay on NCI-H460, in the assay with PC-3, in the assay on CCRF-CEM, in the assay on BT-549, in the assay on 786-0 and in the assay with NCI/ADR-RES was > 100 µM (inactive) throughout.

Regarding `C[N+](C)(C)[BH-](Br)C(O)O` (stereo not given), the GI50 in the assay on Hs-578T, with HL-60, in the assay on HCT-116, with OVCAR-3, in the assay with IGROV-1 and with OVCAR-5 was > 100 µM (inactive) throughout. The GI50 in the assay on SR, in the assay with HOP-62, with K562, in the assay on SK-MEL-28, in the assay on SN12C and with NCI-H23 was > 100 µM (inactive) throughout. In addition, the GI50 in the assay on NCI-H460, in the assay on RXF 393, with PC-3, in the assay on CCRF-CEM, with BT-549 and in the assay with 786-0 was > 100 µM (inactive) each time. In addition, the GI50 in the assay on NCI/ADR-RES is > 100 µM (inactive).
